Assay results taken from patent publication US7166744B2, “Retinoid derivatives and methods for producing said compounds and anti-cancer pharmaceutical composition comprising said compounds” (Chebigen Co., Ltd., priority 2001, dated 2007).

Assays:
[1] = tested on: various cancer cells; assay: MTT proliferation assay, summary over various cancer cells; type: cell-based; details: Table 2
Protocol: The effects of test compounds on proliferation of various cancer cells was examined by 3-(4,5-dimethylthiazol-2-yl)-2,5-diphenyltetrazolium bromide (MTT, Sigma) assay in a dose dependent manner. In the MTT assay, colon, liver, cervix, ovary, and breast cancer cell lines were treated with test compounds at various concentrations. Living cancer cells reduce MTT to dark blue MTT formazan that would be measured by absorbance.
Colon cancer cells, HCT116, DLD-1 and HT29, cervix cancer cells, HeLa and CaSki, ovary cancer cells, SKOV-3, 2774 and OVCAR-3, liver cancer cells, SK-Hep-1, PLCPRF5 and HepG2, and breast cancer cells, ZR75-1 and MDA-MB 231 were seeded at an initial density of 3000 cells per well in 96-well plates. After attachment of cells to the walls of the wells, the medium containing fresh retinoid was treated with various concentrations (0.5 μM, 1 μM, 2.5 μM, 5 μM, 10 μM) for 48 hours. 50 μl of MTT solution (2 mg/ml in PBS) was added to cell culture media. The reaction micture was incubated at 37° C. in a 5% CO2 atmosphere for 4 hours. The supernatant was removed and 150 μl of DMSO was added. The optical density was measured spectrophotometrically at 550 nm. […] For other retinoid derivatives according to the present invention, absorbances were measured by this procedure and IC50 values, concentrations required for 50% growth inhibition, were determined.

[2] = tested on: PARP (poly(ADP-ribose)polymerase) and CPP32 (caspase-3) cleavage in HCT 116 cells; assay: Western blotting of PARP and CPP32 cleavage; type: cell-based; details: 5 μM
Protocol: FIG. 6 is the cleavage results of PARP and CPP-32, by a Western blotting analysis, derived from colon cancer cells HCT 116 to which the respective retinoid derivatives were treated.
By DAPI (4,6-diamidino-2-phenylindole) staining assay for staining DNA in cellular nucleus, nuclear condensation and fragmentation, characteristic features of apoptosis, were observed. […] In FIG. 4, the control represents non-treated cells. The sub-G1 DNA contents of colon cancer HTC116 cells and breast cancer MCF-7 cells were measured by FACS (Fluorescence-Activated Cell Sorter) assay to quantify the apoptosis (FIG. 5). Finally, in order to further characterize the apoptosis observed in retinoid derivative-treated cells, the cleavage of apoptosis-related proteins, including PARP (poly(ADP-ribose)polymerase) and CPP32 (caspase-3) by Western blotting. […] PARP cleavage occurred in a time-dependent manner, in parallel with the induction of apoptosis (FIG. 6B). C in FIG. 6 represents the result of Western blotting of non-treated cells.

Compound	anti-cancer activity in cells other than HepG [1]	cleavage of PARP and CPP32 (Western blotting) [2]
CC1=C(/C=C/C(C)=C/C=C/C(C)=C/C(=O)O)C(C)(C)CCC1 [ATRA, All-trans-retinoic acid, reference compound]	very a low anti-cancer activity	
CCCC(=O)Nc1cc(NC(=O)/C=C(C)/C=C/C=C(C)/C=C/C2=C(C)CCCC2(C)C)ccc1O [KCBG41, (2E,4E,6E,8E)-[3,7-dimethyl-9-(2,6,6-trimethylcyclohex-1-enyl)-nona-2,4,6,8-tetraenoylamino]-(3-butyrylamino-4-hydroxy)phenylamide]		induced the cleavage of the proteins
CCCC(=O)Oc1cc(O)ccc1NC(=O)/C=C(C)/C=C/C=C(C)/C=C/C1=C(C)CCCC1(C)C [KCBG10, 2.2-[(2E,4E,6E,8E)-3,7-Dimethyl-9-(2,6,6-trimethylcyclohex-1-enyl)-nona-2,4,6,8-tetraenoylamino]-5-hydroxyphenylbutanoate]		induced the cleavage of the proteins
